Results published in patent US7972849B2, “Primate pluripotent stem cells produced by somatic cell nuclear transfer” (Oregon Health & Science University, priority 2007, dated 2011).
Where a SMILES comes first, the peptide text is derived from it. The star is where a group is joined. Cbz = O=C(OCc1ccccc1)*

Key:
Type in all cases: cell-based, rhesus monkey
monkey oocytes [1] = assay: In vitro development following fertilization by ICSI of oocytes exposed to MG-132; details: 4 hours, MI oocytes, after ICSI
Protocol: Fertilization by ICSI and culture conditions for TSCs was performed as described previously (Wolf, Thormahlen et al. 2004). After ICSI, injected oocytes were placed in 4-well dishes (Nalge Nunc International Co., Naperville, Ill.) containing protein-free HECM-9 medium and cultured at 37° C. in 6% CO2, 5% O2 and 89% N2. Cultures were maintained under paraffin oil. SCNT-derived TSCs at the 8-cell stage were transferred to fresh plates of HECM-9 medium supplemented with 5% fetal bovine serum (FBS; HyClone, Logan, Utah) and cultured to the blastocyst stage with the medium changed every other day.
Failure to induce nuclear remodeling could reflect either inherently low MPF levels in MII oocytes recovered from ovarian stimulation protocols or loss of MPF resulting from premature oocyte activation during manipulation. In order to evaluate the first possibility, nuclear donor cells were fused with intact (non-enucleated) MII oocytes (n=13). […] To test the hypothesis that failed nuclear remodeling reflects premature activation caused by the SCNT procedures and decline in MPF activity mediated by the proteasome system, proteasome catalytic activity was inhibited with MG-132 (Josefsberg et al., Biol Reprod 62(5): 1270-7, 2000; Zhou et al., Science 302(5648): 117 2003).

monkey SCNT embryos [2] = assay: Nuclear remodeling (lamin A/C immunostaining, chromatin condensation) in reconstructed SCNT embryos; details: for occurrence of remodeling events in the donor nucleus: when used in the SCNT protocols disclosed
Protocol: Monkey oocytes and SCNT-derived totipotent cells were fixed in 4% paraformaldehyde for 20 min. After permeabilization with 0.2% Triton X-100 and 0.1% Tween-20, non-specific reactions were blocked with 10% normal goat serum (Jackson ImmunoResearch Laboratories, Inc., West Grove, Pa.). SCNT-derived totipotent cells were then incubated for 40 min in mouse monoclonal antibody against Oct-4 (POU5F1) or lamin A/C (1:200; Santa Cruz Biotechnology, Inc., Santa Cruz, Calif.). After extensive washing, SCNT-derived totipotent cells were exposed to affinity-purified goat anti-mouse, secondary antibody conjugated with indocarbocyanine (Cy3, 1:200; Jackson ImmunoResearch). SCNT-derived totipotent cells were then co-stained with 2 μg/ml of 4′, 6-diamidino-2-phenylindole (DAPI) for 10 min, whole-mounted onto slides and examined under epifluorescence microscopy.
Mature MII oocytes were exposed to 5 μM MG-132 immediately after retrieval and maintained in this inhibitor throughout enucleation and somatic donor cell fusion procedures.
Monkey oocytes are particularly vulnerable to premature activation and MPF degradation during in vitro manipulations, a likely characteristic of primates but with potential relevance to SCNT success in other mammals.

monkey oocytes [3] = assay: Inhibition of 1st polar body extrusion in monkey oocytes during the MI-MII transition; details: for # Matured after exposure / # Matured during exposure: exposure time 4 hours, MI oocytes, N=5
monkey SCNT embryos [4] = assay: Blastocyst development of monkey SCNT embryos produced by electrofusion
From the text: Alternatively, donor cell nuclear transfer was accomplished by electrofusion. Electrofusion procedures were similar to the conventional protocols described previously (Mitalipov, Yeoman et al. 2002; Mitalipov, Kuo et al. 2003) with the exception that calcium acetates were removed from the fusion buffer. A disaggregated donor cell was aspirated into a micropipette and transferred into the perivitelline space of the cytoplast. Cell fusion was induced by two 50 μsec DC pulses of 2.7 kV/cm (Electro Square Porator T-820, BTX, Inc., San Diego, Calif.) in 0.25 M D-sorbitol buffer containing 0.5 mM Hepes and 1 mg/ml fatty acid-free BSA. Successful fusion was confirmed visually 20-30 min after electroporation by the disappearance of the donor cell in the perivitelline space.
Reconstructed embryos were activated 2 hours after fusion by exposure by exposure to […] ionomycin (CalBiochem, San Diego, Calif.) for 5 min in TALP/HEPES medium supplemented with 1 mg/ml BSA and then transferred for 5 min in TALP/HEPES medium supplemented with 30 mg/ml BSA and 2 mM 6-dimethylaminopurine followed by a 5 h incubation in HECM-9 medium containing 2 mM 6-dimethylaminopurine at 37° C. in 5% CO2, 5% O2 and 90% N2. Activated SCNT embryos were placed in HECM-9 medium and cultured as described above.

CC(C)C[C@@H](C=O)NC(=O)[C@H](CC(C)C)NC(=O)[C@H](CC(C)C)NC(=O)OCc1ccccc1 [MG-132] (Cbz-Leu-Leu-Leu-aldehyde)
# 8-cell (monkey oocytes [1]; MG-132 0.5 μM): 3 | # Blastocyst (monkey oocytes [1]; MG-132 0.5 μM): 3 | # Morula (monkey oocytes [1]; MG-132 0.5 μM): 3 | # 8-cell (monkey oocytes [1]; MG-132 2 μM): 2 | # Blastocyst (monkey oocytes [1]; MG-132 2 μM): 0 | # Morula (monkey oocytes [1]; MG-132 2 μM): 0 | # 8-cell (monkey oocytes [1]; MG-132 5 μM): 1 | # Blastocyst (monkey oocytes [1]; MG-132 5 μM): 0 | # Morula (monkey oocytes [1]; MG-132 5 μM): 0 | nuclear remodeling of reconstructed embryos, by 4 hours after fusion (monkey SCNT embryos [2]; 5 μM MG-132 from retrieval throughout enucleation and fusion, by 4 hours): clear evidence of nuclear remodeling | nuclear remodeling of reconstructed embryos, 1 hour after fusion (monkey SCNT embryos [2]; 5 μM MG-132 from retrieval throughout enucleation and fusion, sampled 1 hour after fusion): slight chromatin condensation and moderate lamin A/C staining | MPF activity in monkey cytoplasts (monkey SCNT embryos [2]; MG-132 exposure at the higher concentration (5 μM)): preserved MPF activity | occurrence of remodeling events in the donor nucleus (monkey SCNT embryos [2]): increased the occurrence of remodeling events in the donor nucleus | # Matured after exposure (monkey oocytes [3]; MG-132 0.5 μM): 1 | # Matured during exposure (monkey oocytes [3]; MG-132 0.5 μM): 3 | # Matured after exposure (monkey oocytes [3]; MG-132 2 μM): 3 | # Matured during exposure (monkey oocytes [3]; MG-132 2 μM): 2 | # Matured after exposure (monkey oocytes [3]; MG-132 5 μM): 4 | # Matured during exposure (monkey oocytes [3]; MG-132 5 μM): 0 | inhibition of first polar body extrusion during the MI to MII transition (monkey oocytes [3]; MG-132 at 5 μM, pilot study): efficient in inhibiting first polar body extrusion

Cn1c(=O)c2c(ncn2C)n(C)c1=O [caffeine]
occurrence of remodeling events in the donor nucleus (monkey SCNT embryos [2]): increased the occurrence of remodeling events in the donor nucleus | time at which SCNT embryos reached the blastocyst stage (monkey SCNT embryos [4]; 2.5 mM caffeine for 2 hours immediately after electrofusion): ≤ 8 days | # Blastocysts forming by day 12 (monkey SCNT embryos [4]; SCNT plus caffeine, 2.5 mM for 2 hours after electrofusion): 0 | # Blastocysts forming by day 8 (monkey SCNT embryos [4]; SCNT plus caffeine, 2.5 mM for 2 hours after electrofusion, count): 4 | Blastocysts forming by day 8 (%) (monkey SCNT embryos [4]; SCNT plus caffeine, 2.5 mM for 2 hours after electrofusion, percentage): 31% | # cleaved (monkey SCNT embryos [4]; SCNT plus caffeine, 2.5 mM for 2 hours immediately after electrofusion, N=19): 13
